Tests used:
Format in all cases: physicochemical
[1] = Determination of the dissolution rate (mass of filter residue); conditions: 1.75 g in 175 ml water at 23° C., stirred 10 seconds
From the text: The moist filter residue is dried. The mass of the filter residue serves as a measure of the dissolution rate; the lower the mass, the better the dissolution rate.

[2] = Determination of the grain size distribution (laser diffraction, HELOS/KR)
Description: 7. Determination of the Grain Size Distribution
The grain size distribution was determined using a laser diffraction method on a “HELOS/KR” grain size measuring device from Sympatec GmbH. The R6 measuring aperture was used, which covers a measuring range of 0.5 to 1750 μm. The sample was fed via a vibrating chute with 60% power and a dispersion pressure of 2.5 bar. The software version “WINDOX 5.1.2.0, LD” was used for evaluation. Setting the trigger conditions: Time base 100.00 ms, start at c.opt>=1.0%, validity c.opt from 1.0% to 14.0%, stop at 5.000s c.opt<=0.9% or 10.000s real time. The x10, x50 and x90 values were used to assess the agglomerate quality, represented as the distribution sum Q3 in a histogram of the grain size distribution.

[3] = Determination of flowability (Evolution Powder Tester); conditions: compression, no time consolidation
Description: 4. Determination of Flowability
Flowability of solids (powders and agglomerates) is determined using the “Evolution Powder Tester” measuring device from PS Prozesstechnik GmbH, Basel, Switzerland. Flowability is shown in the dimensionless number [ffc]. The method used is determination by compression on the Evolution Powder Tester; no time consolidation is carried out. For this purpose, 25 mL of the solid is weighed into the measuring cell and placed in the measuring device. After starting the measurement, the solid is compressed in the measuring cell at a stamping speed of 15 mm per minute and a force (F1) of 10000 kPa for 30 seconds. The resulting solid compact in the measuring cell is then loaded again with a stamping speed of 10 mm per minute and slowly increasing force (F2) until the solid compact breaks. The ratio of the force (F1) for compression and the force (F2) for breaking the compact corresponds to the flowability [ffc] and is calculated using the formula: […]
The following assessment applies to the classification of flowability [ffc]: […]

[4] = Determination of the angle of repose (DIN ISO 4324)
Description: 3. Determination of the Angle of Repose
The angle of repose was determined according to the method DIN ISO 4324 (1983-12) Surfactants; powders and granules; determination of the angle of repose. The smaller the angle of repose, the better the flow properties.

[5] = Determination of the bulk density (DIN ISO 697)
Description: 6. Determination of the Bulk Density
The bulk density was determined according to the method DIN ISO 697 (1984-01) surfactants; detergents; determination of bulk density; method by measuring the mass of a given volume.
The higher the bulk density, the more advantageous the handling.

[6] = Determination of pourability (drainage funnel); design: key: Solid trickles through the 2.5 mm outlet: Grade 1; Solid trickles through the 5 mm outlet: Grade 2; Solid trickles through the 8 mm outlet: Grade 3; Solid trickles through the 12 mm outlet: Grade 4; Solid trickles through the 18 mm outlet: Grade 5; Solid does not trickle through the 18 mm outlet: Grade 6; conditions: grade by outlet diameter of test funnel, 50 mL sample; lower grade is better
Description: 2. Determination of Pourability (Drainage Funnel):
The test equipment consists of five test funnels with the same diameter (36 mm inner diameter) and 28 degree tilt, but with different outlet diameters (2.5 mm; 5 mm; 8 mm; 12 mm and 18 mm). A 50 mL sample of creatine or the creatine formulation is filled into the test funnel, whereby the outlet is closed from below so that no material can drain during filling. In the next step, the outlet is opened completely—without shaking the test funnel—so that the entire outlet cross-section is released. The evaluation parameter is the diameter at which the solid trickles through independently and without external influence.
The lower the grade, the better the pourability.

[7] = Determination of dustiness (DustView II); conditions: 30.0 g sample, maximum attenuation plus value at 30 seconds
Description: 5. Determination of Dustiness
The dustiness of solids (powders and agglomerates) is represented in the dimensionless dust number. The dust number is determined using the DustView II dust measuring device from Palas GmbH, Karlsruhe.
Thereby, 30.0 g of a sample is weighed and placed in the funnel on the flap. The measurement is then started by pressing a button on the control panel. The flap opens and the solid falls freely into the dust box. The impact of the solid material whirls up the dust particles. As a result, the light beam emitted by the laser is attenuated by the swirling dust and the attenuated light beam is detected at the receiver. The degree of attenuation (transmission signal) compared to the light beam emitted by the light source is a measure of the dustiness of the solid. A value of 100 means the maximum possible attenuation of the light beam and a value of 0 means no attenuation of the light beam. To determine the dust number, the value of the maximum attenuation of the light beam is added to the value at 30 seconds after the start of the measurement and output as the dust number.
The lower the dust number, the less dusty the solid is.

CN(CC(=O)O)C(=N)N.O [creatine monohydrate]
Undissolved portion to 1.75 g [1]: 632.9 mg | Grain size distribution ×50 value ([2]; distribution sum Q3, listed as non-ground creatine monohydrate, monohydrate): 171 μm

CN(CC(=O)O)C(=N)N.O [Example 6, creatine monohydrate]
Flowability [ffc] [3]: 1.9 | Angle of repose [4]: 54 ° | Bulk density [5]: 270 g/L | Pourability [6]: 6 | Dustiness [dust number] [7]: 23.2 | Grain size distribution ×10 value ([2]; distribution sum Q3): 1.32 μm | Grain size distribution ×90 value ([2]; distribution sum Q3): 45.8 μm | Grain size distribution ×50 value ([2]; distribution sum Q3, monohydrate): 13.0 μm

From patent publication US20250359578A1, “WATER-SOLUBLE CREATINE AGGLOMERATE” (Alzchem Trostberg GmbH, priority 2022, published 2025)
